Reference: PMC10133546, “Simultaneous determination of multiple components in rat plasma by UHPLC-sMRM for pharmacokinetic studies after oral administration of Qingjin Yiqi Granules” (Frontiers in Pharmacology, 2023)
Where two headings read alike, the source gives them in different places.

Key:
[1] = Pharmacokinetic study in rat plasma after oral administration of QJYQ (UHPLC-sMRM); format: in vivo, Sprague-Dawley rats; conditions: for AUC(0-inf): read-out: AUC(0-∞); for MRT inf: read-out: MRT (0-∞); for MRT last: read-out: MRT(0-t)
[2] = design: method as in Wang et al., 2008; Feng et al., 2017; conditions: alkaline and light and heat conditions; ref Wang et al., 2008; Feng et al., 2017; cited from earlier work
[3] = Stability of the working solution (4°C for 1 month); format: physicochemical
Method: The stability of analytes in plasma was evaluated by analyzing 4 QC samples (n = 6). The stability was included auto-sampler stability (keeping the sample in auto-sampler for 24 h), three times of freeze-thaw cycles stability (freezing cycle at −80°C, thawing cycle at room temperature), room temperature stability (storing samples at room temperature for 24 h), long-term stability (storing samples at −80°C for 1 month). […] Accompanying curve was established when testing the sample, calculate and compare the ratio of the actual measured concentration to the theoretical concentration, expressed in accuracy and RSD.

[4] = Stability of analytes in rat plasma (auto-sampler, freeze-thaw, room temperature, long-term); conditions: for Autosampler for 24 h Accuracy (%): autosampler 24 h; for Room temperature for 24 h Accuracy (%): room temperature 24 h; for Freeze thaw cycles Accuracy (%): three freeze-thaw cycles
[5] = system: Caco-2 cell; design: method as in Cai et al., 2016; conditions: compared with baicalin; ref Cai et al., 2016; cited from earlier work
[6] = male, Sprague-Dawley, rat, plasma, po, 3.15 g/kg, rat plasma, oral QJYQ 3.15 g/kg, n = 8, mean ± SD, read-out: Tmax
[7] = male, Sprague-Dawley, rat plasma, oral QJYQ 3.15 g/kg, MRT type not specified, read-out: MRT
[8] = male, Sprague-Dawley, rat plasma, oral QJYQ 3.15 g/kg, n = 8, mean ± SD
[9] = male, Sprague-Dawley, rat plasma, oral QJYQ 3.15 g/kg, n = 8, mean ± SD, read-out: AUC(0-t)
[10] = male, Sprague-Dawley, rat plasma, oral QJYQ 3.15 g/kg, n = 8, mean ± SD, read-out: Cmax

O=C(O)[C@H]1O[C@@H](Oc2cc3oc(-c4ccccc4)cc(=O)c3c(O)c2O)[C@H](O)[C@@H](O)[C@@H]1O [baicalin]
Tmax [1, 6]: 7.22 ± 1.41 h
MRT [1, 7]: > 8 h
half-life [1, 8]: 3.09 ± 0.87 h
AUC(0-t) [1, 9]: 49300 ± 24900 ng·h/mL
AUC(0-inf) [1, 8]: 49700 ± 24900 ng·h/mL
Cmax [1, 10]: 4520 ± 3140 ng/mL
MRT inf [1, 8]: 8.62 ± 0.53 h
MRT last [1, 8]: 8.45 ± 0.58 h
stability [2]: not stable
Working solution Accuracy (%) ([3]; 15.6 ng/mL): 83.1%
Working solution Accuracy (%) ([3]; 125 ng/mL): 105.0%
Working solution Accuracy (%) ([3]; 1000 ng/mL): 93.9%
Working solution Accuracy (%) ([3]; 5000 ng/mL): 87.7%
Autosampler for 24 h Accuracy (%) ([4]; 15.6 ng/mL): 111.0%
Room temperature for 24 h Accuracy (%) ([4]; 15.6 ng/mL): 98.5%
−80°C for 1month Accuracy (%) ([4]; 15.6 ng/mL, −80°C 1 month): 98.9%
Autosampler for 24 h Accuracy (%) ([4]; 125 ng/mL): 113.0%
Room temperature for 24 h Accuracy (%) ([4]; 125 ng/mL): 104.0%
Freeze thaw cycles Accuracy (%) ([4]; 125 ng/mL): 89.3%
−80°C for 1month Accuracy (%) ([4]; 125 ng/mL, −80°C 1 month): 98.1%
Autosampler for 24 h Accuracy (%) ([4]; 1000 ng/mL): 94.2%
Room temperature for 24 h Accuracy (%) ([4]; 1000 ng/mL): 96.8%
Freeze thaw cycles Accuracy (%) ([4]; 1000 ng/mL): 89.7%
−80°C for 1month Accuracy (%) ([4]; 1000 ng/mL, −80°C 1 month): 91.4%
Autosampler for 24 h Accuracy (%) ([4]; 5000 ng/mL): 86.8%
Room temperature for 24 h Accuracy (%) ([4]; 5000 ng/mL): 89.0%
Freeze thaw cycles Accuracy (%) ([4]; 5000 ng/mL): 111.0%
−80°C for 1month Accuracy (%) ([4]; 5000 ng/mL, −80°C 1 month): 90.3%

COc1c(O[C@@H]2O[C@H](C(=O)O)[C@@H](O)[C@H](O)[C@H]2O)cc(O)c2c(=O)cc(-c3ccccc3)oc12 [wogonoside]
AUC(0-t) ([1]; rat, in vivo, po, 3.15 g/kg): 73080.32 ± 34091.07 ng·h/mL
AUC(0-∞) ([1]; rat, in vivo, po, 3.15 g/kg): 73104.07 ± 34093.59 ng·h/mL
Cmax ([1]; rat, in vivo, po, 3.15 g/kg): 5052.10 ± 3277.54 ng/mL
MRT ([1]; rat, in vivo, po, 3.15 g/kg): greater than 8 h
MRT (0-∞) ([1]; rat, in vivo, po, 3.15 g/kg): 8.40 ± 0.83 h
MRT(0-t) ([1]; rat, in vivo, po, 3.15 g/kg): 8.39 ± 0.83 h
T1/2 ([1]; rat, in vivo, po, 3.15 g/kg): 2.67 ± 0.24 h
Tmax ([1]; rat, in vivo, po, 3.15 g/kg): 5.89 ± 3.26 h
stability [2]: not stable
Working solution Accuracy (%) ([3]; 62.5 ng/mL): 91.0%
Working solution Accuracy (%) ([3]; 500 ng/mL): 113.0%
Working solution Accuracy (%) ([3]; 1000 ng/mL): 105.0%
Working solution Accuracy (%) ([3]; 5000 ng/mL): 108.0%
Autosampler for 24 h Accuracy (%) ([4]; 62.5 ng/mL): 89.7%
Room temperature for 24 h Accuracy (%) ([4]; 62.5 ng/mL): 83.2%
Freeze thaw cycles Accuracy (%) ([4]; 62.5 ng/mL): 84.2%
−80°C for 1month Accuracy (%) ([4]; 62.5 ng/mL, −80°C 1 month): 83.7%
Autosampler for 24 h Accuracy (%) ([4]; 500 ng/mL): 105.0%
Room temperature for 24 h Accuracy (%) ([4]; 500 ng/mL): 93.4%
−80°C for 1month Accuracy (%) ([4]; 500 ng/mL, −80°C 1 month): 113.0%
Autosampler for 24 h Accuracy (%) ([4]; 1000 ng/mL): 98.7%
Room temperature for 24 h Accuracy (%) ([4]; 1000 ng/mL): 85.6%
Freeze thaw cycles Accuracy (%) ([4]; 1000 ng/mL): 95.1%
−80°C for 1month Accuracy (%) ([4]; 1000 ng/mL, −80°C 1 month): 98.0%
Autosampler for 24 h Accuracy (%) ([4]; 5000 ng/mL): 97.5%
Room temperature for 24 h Accuracy (%) ([4]; 5000 ng/mL): 111.0%
Freeze thaw cycles Accuracy (%) ([4]; 5000 ng/mL): 90.9%
−80°C for 1month Accuracy (%) ([4]; 5000 ng/mL, −80°C 1 month): 89.1%
Caco-2 cell membrane permeability [5]: greater than baicalin

COc1c(O)cc(O)c2c(=O)cc(-c3ccccc3)oc12 [wogonin]
Tmax [1, 6]: 6.29 ± 0.76 h
MRT [1, 7]: > 8 h
half-life [1, 8]: 1.91 ± 0.09 h
AUC(0-t) [1, 9]: 288 ± 66.1 ng·h/mL
AUC(0-inf) [1, 8]: 288 ± 66.1 ng·h/mL
MRT inf [1, 8]: 8.27 ± 1.09 h
MRT last [1, 8]: 8.27 ± 1.09 h
Cmax ([1]; rat plasma, oral QJYQ 3.15 g/kg, n = 8, mean ± SD): 38.13 ± 10.55 ng/mL
Working solution Accuracy (%) ([3]; concentration 1.56 ng/mL): 98.0%
Working solution Accuracy (%) ([3]; concentration 12.5 ng/mL): 98.9%
Working solution Accuracy (%) ([3]; concentration 100 ng/mL): 85.8%
Working solution Accuracy (%) ([3]; concentration 500 ng/mL): 100.0%
Autosampler for 24 h Accuracy (%) ([4]; concentration 1.56 ng/mL): 82.8%
Autosampler for 24 h Accuracy (%) ([4]; concentration 12.5 ng/mL): 111.0%
Autosampler for 24 h Accuracy (%) ([4]; concentration 100 ng/mL): 102.0%
Autosampler for 24 h Accuracy (%) ([4]; concentration 500 ng/mL): 90.5%
Room temperature for 24 h Accuracy (%) ([4]; concentration 1.56 ng/mL): 98.0%
Room temperature for 24 h Accuracy (%) ([4]; concentration 12.5 ng/mL): 94.1%
Room temperature for 24 h Accuracy (%) ([4]; concentration 100 ng/mL): 89.8%
Room temperature for 24 h Accuracy (%) ([4]; concentration 500 ng/mL): 106.0%
Freeze thaw cycles Accuracy (%) ([4]; concentration 1.56 ng/mL): 86.4%
Freeze thaw cycles Accuracy (%) ([4]; concentration 12.5 ng/mL): 89.6%
Freeze thaw cycles Accuracy (%) ([4]; concentration 500 ng/mL): 91.8%
−80°C for 1month Accuracy (%) ([4]; −80°C for 1 month, concentration 1.56 ng/mL): 111.0%
−80°C for 1month Accuracy (%) ([4]; −80°C for 1 month, concentration 12.5 ng/mL): 85.1%
−80°C for 1month Accuracy (%) ([4]; −80°C for 1 month, concentration 100 ng/mL): 96.0%
−80°C for 1month Accuracy (%) ([4]; −80°C for 1 month, concentration 500 ng/mL): 87.4%

O=C(O)C=Cc1ccc(O)cc1 [p-Coumaric acid]
half-life [1, 8]: 1.79 ± 0.38 h
AUC(0-t) [1, 9]: 381 ± 101 ng·h/mL
AUC(0-inf) [1, 8]: 385 ± 126 ng·h/mL
Cmax [1, 10]: 153 ± 33.4 ng/mL
MRT inf [1, 8]: 3.63 ± 1.57 h
MRT last [1, 8]: 3.03 ± 1.01 h
Working solution Accuracy (%) ([3]; 1.56 ng/mL): 81.9%
Working solution Accuracy (%) ([3]; 100 ng/mL): 95.9%
Working solution Accuracy (%) ([3]; 500 ng/mL): 92.8%
Autosampler for 24 h Accuracy (%) ([4]; 1.56 ng/mL): 83.2%
Room temperature for 24 h Accuracy (%) ([4]; 1.56 ng/mL): 82.7%
Freeze thaw cycles Accuracy (%) ([4]; 1.56 ng/mL): 95.1%
−80°C for 1month Accuracy (%) ([4]; 1.56 ng/mL, −80°C 1 month): 110.0%
Autosampler for 24 h Accuracy (%) ([4]; 12.5 ng/mL): 102.0%
Room temperature for 24 h Accuracy (%) ([4]; 12.5 ng/mL): 96.1%
Freeze thaw cycles Accuracy (%) ([4]; 12.5 ng/mL): 95.2%
−80°C for 1month Accuracy (%) ([4]; 12.5 ng/mL, −80°C 1 month): 85.1%
Autosampler for 24 h Accuracy (%) ([4]; 100 ng/mL): 96.9%
Room temperature for 24 h Accuracy (%) ([4]; 100 ng/mL): 98.7%
Freeze thaw cycles Accuracy (%) ([4]; 100 ng/mL): 87.0%
−80°C for 1month Accuracy (%) ([4]; 100 ng/mL, −80°C 1 month): 115.0%
Autosampler for 24 h Accuracy (%) ([4]; 500 ng/mL): 115.0%
Room temperature for 24 h Accuracy (%) ([4]; 500 ng/mL): 97.8%
Freeze thaw cycles Accuracy (%) ([4]; 500 ng/mL): 88.7%
−80°C for 1month Accuracy (%) ([4]; 500 ng/mL, −80°C 1 month): 109.0%
